Measured values reported in patent publication US7829575B2, “Methods for treating androgen receptor related disorders” (University of Cincinnati, priority 2006, dated 2010).
Where a SMILES comes first, the peptide text is derived from it. The star is where a group is joined. Cbz = O=C(OCc1ccccc1)*

Experiments:
LNCaP cells [1] = assay: Cell cycle distribution and apoptosis, flow cytometry (propidium staining) and western blotting; assay type: cell-based; details: for increase of the portion of cells in G1 phase of cell cycle: regardless of presence or absence of DHT
Procedure: To further appreciate the effects of DL3 on cell growth, cell cycle distribution is determined using the flow cytometry analysis. After incubation of LNCaP cells for 24 hr in SMEM, the majority of cells are in the G1 phase of cell cycle. […] The cell cycle distribution is examined by the propidium staining method. […] Thus, DL3 induces GI arrest of prostate cancer cells in short term culture.

LNCaP cells [2] = assay: AR protein stability and hsp70/hsp90 expression, western blotting; assay type: cell-based
Procedure: Cell lysates are prepared and analyzed by western blotting. […] To further determine how DL3 downregulates AR, LNCaP cells are incubated for 24 hr with DL3 in the absence or presence of proteasome inhibitor MG132.
Hsp70 and hsp90 are key molecular chaperones in cells. Along with several co-chaperones, hsp70 and hsp90 play critical roles in folding and assembling AR to a high-affinity ligand binding conformation and in regulating AR activation that occurs following hormone binding. Therefore, the possibility of whether the downregulation of AR protein by DL3 is mediated by its effects on hsp70 or hsp90 expression is investigated.
Thus, the effects of DL3 on hsp70 expression are further investigated in several other prostate cancer cell lines, including LAPC-4 (wildtype AR), 22Rv1 (mutant AR), and AR-negative cell lines PC-3, DU-145, PWE1-NB14 (ATCC), and PWE1-NB26 (ATCC). […] In FIG. 10, LAPC-4 (in SMEM) and all other (in CMEM) cells are treated for 24 hr and analyzed by western blotting. LNCaP cells are transfected for 24 hr with hsp70 or its control vector, then treated for 24 hr.

LNCaP-ARR2-GFP cells = assay: AR-regulated GFP expression in LNCaP-ARR2-GFP cells; assay type: cell-based; details: for GFP expression (AR agonist activity): SMEM, absence of DHT, DL3 at 25 nM or 20 μM; for cell growth: LNCaP-ARR2-GFP cells
[3] = test system: LNCaP cells (mutant AR, H877A); assay: LNCaP cell growth, MTT staining; assay type: cell-based
Excerpt: (§1) Viable cells are stained with MTT (3-(4,5-dimethylthiazol-2-yl)-2,5-diphenyltetrazolium bromide). *, **, and *** designate p<0.05, <0.01, and 0.001, respectively, compared with controls.

LNCaP cells [4] = assay: PSA secretion, ELISA of culture supernatant; assay type: cell-based; details: for DHT-induced PSA production / PSA production under androgen-free conditions: 20 μM, 48 hr; for PSA production under androgen-free conditions: no DHT
Procedure: PSA in the culture supernatant is determined by using an enzyme-linked immunosorbent assay (ELISA) kit. PSA levels are normalized by cell density.

LNCaP cells [5] = assay: Cellular PSA and AR protein, western blotting; assay type: cell-based
Procedure: In FIG. 6, cellular PSA and AR are analyzed by western blotting androgen-starved LNCaP cells.

LNCaP cells [6] = assay: PSA and AR mRNA expression, RT-PCR; assay type: cell-based; details: 24 hr; for expression of AR mRNA: 20 μM DL3 or Bical
Procedure: In FIG. 7 LNCaP or 22Rv1 cells (A) are treated for 24 hr with DL3 and total RNA is extracted and analyzed by real-time RT-PCR. […] PSA mRNA in LNCaP cells is approximately 20 fold higher than that in 22Rv1 cells (FIG. 7A).

LNCaP-Flut-R cells [7] = assay: Growth of Flut-refractory LNCaP cells, MTT; assay type: cell-based; details: 10 μM, 4 days, MTT (FIG. 2F)
Excerpt: as §1

LNCaP-Nilut-R cells [8] = assay: Growth of Nilut-refractory LNCaP cells, MTT; assay type: cell-based; details: 10 μM, 4 days, MTT (FIG. 2F)
Excerpt: as §1

LNCaP-Flut-R cells [9] = assay: PSA secretion, ELISA of culture supernatant; assay type: cell-based; details: 1 nM DHT, 10 μM, 48 hr (FIG. 5D)
Procedure: (§2) For the following discussion, see FIG. 5, where androgen-starved LNCaP, LNCaP-Flut-R, or LNCaP-Nilut-R cells are plated into 96-well plates at 2×10^4 cells/wells in SMEM and treated for 48 hr. PSA in the culture supernatant is determined by using an enzyme-linked immunosorbent assay (ELISA) kit. PSA levels are normalized by cell density. […] The DHT-induced production of PSA is reduced by approximately 50% in cells treated with 5 μM of DL3 (FIG. 5B). […] PSA production is elevated in LNCaP-Flut-R and LNCaP-Nilut-R cells compared with that in their parental cells (FIG. 5D).

LNCaP-Nilut-R cells [10] = assay: PSA secretion, ELISA of culture supernatant; assay type: cell-based; details: 1 nM DHT, 10 μM, 48 hr (FIG. 5D)
Procedure: as §2

LNCaP cells [11] = assay: PSA and AR mRNA expression, RT-PCR; assay type: cell-based; details: 6 hr
human PSA gene promoter = assay: PSA promoter luciferase reporter (pGL3-PSA-luc) in LNCaP cells; details: 1 nM DHT, 24 hr

## CC(C)C(=O)Nc1ccc([N+](=O)[O-])c(C(F)(F)F)c1 [Flut, Flutamide]
LNCaP cells [1]; 24 hr
  increase of the portion of cells in G1 phase of cell cycle: 15%

## CC(C)C[C@@H](C=O)NC(=O)[C@H](CC(C)C)NC(=O)[C@H](CC(C)C)NC(=O)OCc1ccccc1 [MG132, reference compound] (Cbz-Leu-Leu-Leu-aldehyde)
LNCaP cells [2]; 24 hr with DL3 in presence of MG132
  DL3-induced reduction of AR: reversed

## CC(O)(CS(=O)(=O)c1ccc(F)cc1)C(=O)Nc1ccc(C#N)c(C(F)(F)F)c1 (stereo not drawn) [Bical, Bicalutamide, reference compound]
LNCaP-ARR2-GFP cells
  GFP expression (AR agonist activity): not
[3]
  effect on DHT-stimulated growth of LNCaP cells: inhibit DHT-stimulated growth of LNCaP cells in a dose-dependent manner
LNCaP cells [1]; 24 hr
  increase of the portion of cells in G1 phase of cell cycle: 15%
LNCaP cells [1]; 24 hr, DL3 at 20 μM
  induction of apoptosis: does not induce apoptosis
LNCaP cells [1]; data not shown
  survivin expression and caspase 3 cleavage (western blotting): alter neither survivin expression nor caspase 3 cleavage
LNCaP cells [4]; 1 nM DHT
  DHT-induced PSA production: reduce DHT-induced PSA production
LNCaP cells [4]
  PSA production under androgen-free conditions: stimulates PSA production
LNCaP cells [5]; 20 μM, 24 hr
  PSA protein expression under androgen-free culture conditions: enhances PSA expression
LNCaP cells [5]; 20 μM, 24 hr (FIG. 6C)
  expression of AR protein: moderately downregulated
LNCaP cells [5]; SMEM, 24 hr, Flut, Nilut, Bical at 20 μM
  DHT-induced PSA protein expression: moderately reduced
LNCaP cells [6]; 20 μM, 1 nM DHT
  DHT-stimulated PSA mRNA expression: only partially inhibits
LNCaP cells [6]; 20 μM, androgen-starved
  basal level of PSA mRNA: no significant effects
LNCaP cells [6]; 1 nM DHT
  expression of AR mRNA: partially downregulated

## Oc1ccc(/C=C/c2cc(O)cc(O)c2)cc1 [Resveratol]
LNCaP-ARR2-GFP cells
  cell growth: significantly inhibited cell growth
  GFP expression (AR agonist activity): enhanced GFP expression

## CC1(C)NC(=O)N(c2ccc([N+](=O)[O-])c(C(F)(F)F)c2)C1=O [Nilut, Nilutamide, reference compound]
LNCaP-Flut-R cells [7]
  growth of LNCaP-Flut-R cells: promotes growth
LNCaP-Nilut-R cells [8]
  growth of LNCaP-Nilut-R cells: promotes growth
LNCaP cells [4]; 1 nM DHT, 10 μM, 48 hr (FIG. 5D)
  PSA production in parental LNCaP cells: enhances PSA production
LNCaP cells [4]; 1 nM DHT
  DHT-induced PSA production: not
LNCaP cells [4]
  PSA production under androgen-free conditions: stimulates PSA production
LNCaP-Flut-R cells [9]
  PSA production in LNCaP-Flut-R cells: enhances PSA production
LNCaP-Nilut-R cells [10]
  PSA production in LNCaP-Nilut-R cells: enhances PSA production

## O=c1c(O)c(-c2ccc(O)c(O)c2)oc2cc(O)cc(O)c12 [Querstin]
LNCaP-ARR2-GFP cells
  cell growth: significantly inhibited cell growth
  GFP expression (AR agonist activity): enhanced GFP expression

## C[C@]12CCC(=O)C[C@@H]1CC[C@@H]1[C@@H]2CC[C@]2(C)[C@@H](O)CC[C@@H]12 [DHT, dihydrotestosterone, reference compound]
LNCaP cells [4]
  PSA production: significantly elevated
LNCaP cells [6]; 1 nM DHT
  expression of AR mRNA: partially downregulated
LNCaP cells [2]; SMEM, 24 hr with DHT or CHX (FIG. 9B, lane 3 or 5 vs. lane 1)
  expression of hsp70: also reduced
LNCaP cells [11]
  AR mRNA expression: not significantly altered
Human PSA gene promoter
  enhancement of PSA promoter activity: approximately 5 fold

## O=c1c(-c2ccc(O)cc2)coc2cc(O)cc(O)c12 [Genistein]
LNCaP-ARR2-GFP cells
  cell growth: significantly inhibited cell growth
  GFP expression (AR agonist activity): enhanced GFP expression
